Columns and labels:
[1] = molecular target: human TLR9 (Homo sapiens (Human), UniProt Q9NR96); assay: TLR9 inhibition reporter assay (HEK-Blue SEAP); conditions: read-out: TLR9 IC50; HEK-Blue human TLR9 cells, ODN2006 5 nM;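 note: SEAP driven by an IFN-β minimal promoter with NF-κB and AP-1 sites, read after 22 h, compounds dosed 0.05 nM–50 µM, inhibition scaled between agonist plus DMSO and reference-inhibitor wells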
[2] = molecular target: human TLR8 (Homo sapiens (Human), UniProt Q9NR97); assay: TLR8 inhibition reporter assay (HEK-Blue SEAP); conditions: read-out: TLR8 IC50; HEK-Blue human TLR8 cells, R848 15.9 μM;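 note: SEAP driven by IFN-β minimal promoter carrying NF-κB and AP-1 sites, compounds dosed 0.05 nM to 50 µM for 22 h, inhibition scaled between agonist-plus-DMSO and reference-inhibitor wells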
Protocol: (§1) HEK-Blue™-cells (Invivogen) overexpressing human TLR7, TLR8 or TLR9 receptors were used for screening inhibitors of these receptors using an inducible SEAP (secreted embryonic alkaline phosphatase) reporter gene under the control of the IFN-β minimal promoter fused to five NF-κB and AP-1-binding sites. Briefly, cells are seeded into Greiner 384 well plates (15000 cells per well for TLR7, 20,000 for TLR8 and 25,000 for TLR9) and then treated with test compounds in DMSO to yield a final dose response concentration range of 0.05 nM-50 μM. After a 30 minute compound pre-treatment at room temperature, the cells are then stimulated with a TLR7 ligand (gardiquimod at a final concentration of 7.5 μM), TLR8 ligand (R848 at a final concentration of 15.9 μM) or TLR9 ligand (ODN2006 at a final concentration of 5 nM) to activate NF-κB and AP-1 which induce the production of SEAP. After a 22 hour incubation at 37° C., 5% CO2, SEAP levels are determined with the addition of HEK-Blue™ Detection reagent (Invivogen), a cell culture medium that allows for detection of SEAP, according to manufacturer's specifications.

[3] = molecular target: human TLR7 (Homo sapiens (Human), UniProt Q9NYK1); assay: TLR7 inhibition reporter assay (HEK-Blue SEAP); type: cell-based; conditions: HEK-Blue human TLR7 cells, gardiquimod 7.5 μM
Sequence of human TLR7 (Q9NYK1 27-1049): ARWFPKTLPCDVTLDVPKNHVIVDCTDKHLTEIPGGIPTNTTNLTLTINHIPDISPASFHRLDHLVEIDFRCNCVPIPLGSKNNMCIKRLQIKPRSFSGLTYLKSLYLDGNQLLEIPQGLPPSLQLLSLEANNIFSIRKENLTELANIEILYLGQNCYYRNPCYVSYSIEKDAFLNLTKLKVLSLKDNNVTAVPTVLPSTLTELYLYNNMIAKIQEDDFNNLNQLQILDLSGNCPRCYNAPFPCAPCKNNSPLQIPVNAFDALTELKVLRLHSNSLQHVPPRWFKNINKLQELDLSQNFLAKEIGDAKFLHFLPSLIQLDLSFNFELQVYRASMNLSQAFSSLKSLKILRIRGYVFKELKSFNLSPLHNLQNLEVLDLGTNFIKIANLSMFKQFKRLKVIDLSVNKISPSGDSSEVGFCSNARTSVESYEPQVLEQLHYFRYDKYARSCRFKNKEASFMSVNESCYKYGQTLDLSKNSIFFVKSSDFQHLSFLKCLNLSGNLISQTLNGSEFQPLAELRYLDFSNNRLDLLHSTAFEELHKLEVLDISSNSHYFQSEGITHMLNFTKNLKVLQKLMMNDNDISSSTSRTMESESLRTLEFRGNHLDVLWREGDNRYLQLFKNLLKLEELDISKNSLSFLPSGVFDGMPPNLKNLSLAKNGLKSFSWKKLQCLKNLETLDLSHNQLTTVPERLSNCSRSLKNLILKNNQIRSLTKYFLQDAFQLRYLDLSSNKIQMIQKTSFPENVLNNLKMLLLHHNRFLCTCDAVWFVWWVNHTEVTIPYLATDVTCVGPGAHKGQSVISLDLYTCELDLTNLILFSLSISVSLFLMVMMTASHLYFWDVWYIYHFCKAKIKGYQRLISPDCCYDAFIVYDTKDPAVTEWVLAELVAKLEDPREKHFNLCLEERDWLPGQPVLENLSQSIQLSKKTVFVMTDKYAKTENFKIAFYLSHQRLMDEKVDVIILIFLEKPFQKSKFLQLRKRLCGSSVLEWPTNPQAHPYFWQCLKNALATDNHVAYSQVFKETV
Protocol: as §1

Sequence of human TLR9 (Q9NR96 26-1032): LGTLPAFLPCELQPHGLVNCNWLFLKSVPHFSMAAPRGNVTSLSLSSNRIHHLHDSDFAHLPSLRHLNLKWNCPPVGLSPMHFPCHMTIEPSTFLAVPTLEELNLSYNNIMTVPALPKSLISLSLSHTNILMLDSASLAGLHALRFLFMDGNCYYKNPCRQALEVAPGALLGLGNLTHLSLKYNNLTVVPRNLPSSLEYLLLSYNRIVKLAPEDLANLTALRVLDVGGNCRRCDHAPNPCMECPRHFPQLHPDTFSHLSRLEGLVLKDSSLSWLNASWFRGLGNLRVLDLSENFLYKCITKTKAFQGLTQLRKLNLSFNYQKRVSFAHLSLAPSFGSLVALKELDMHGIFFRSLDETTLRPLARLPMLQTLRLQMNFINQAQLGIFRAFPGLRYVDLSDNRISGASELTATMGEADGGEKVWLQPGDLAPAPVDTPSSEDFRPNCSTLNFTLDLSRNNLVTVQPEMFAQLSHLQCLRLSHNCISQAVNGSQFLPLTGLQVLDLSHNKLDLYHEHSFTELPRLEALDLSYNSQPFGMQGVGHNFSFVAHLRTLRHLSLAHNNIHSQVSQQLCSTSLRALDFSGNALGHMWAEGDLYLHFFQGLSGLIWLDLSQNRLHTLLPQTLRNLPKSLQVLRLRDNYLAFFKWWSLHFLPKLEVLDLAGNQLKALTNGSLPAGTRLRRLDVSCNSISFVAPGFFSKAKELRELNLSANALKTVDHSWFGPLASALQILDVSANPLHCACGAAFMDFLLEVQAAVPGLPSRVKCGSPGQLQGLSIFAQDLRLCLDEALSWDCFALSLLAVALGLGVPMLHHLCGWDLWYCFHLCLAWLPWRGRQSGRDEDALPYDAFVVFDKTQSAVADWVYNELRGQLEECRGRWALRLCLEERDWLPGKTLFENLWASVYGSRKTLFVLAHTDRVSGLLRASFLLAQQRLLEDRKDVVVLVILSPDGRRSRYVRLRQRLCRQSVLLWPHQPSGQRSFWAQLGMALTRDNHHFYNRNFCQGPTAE
Sequence of human TLR8 (Q9NR97 27-1041): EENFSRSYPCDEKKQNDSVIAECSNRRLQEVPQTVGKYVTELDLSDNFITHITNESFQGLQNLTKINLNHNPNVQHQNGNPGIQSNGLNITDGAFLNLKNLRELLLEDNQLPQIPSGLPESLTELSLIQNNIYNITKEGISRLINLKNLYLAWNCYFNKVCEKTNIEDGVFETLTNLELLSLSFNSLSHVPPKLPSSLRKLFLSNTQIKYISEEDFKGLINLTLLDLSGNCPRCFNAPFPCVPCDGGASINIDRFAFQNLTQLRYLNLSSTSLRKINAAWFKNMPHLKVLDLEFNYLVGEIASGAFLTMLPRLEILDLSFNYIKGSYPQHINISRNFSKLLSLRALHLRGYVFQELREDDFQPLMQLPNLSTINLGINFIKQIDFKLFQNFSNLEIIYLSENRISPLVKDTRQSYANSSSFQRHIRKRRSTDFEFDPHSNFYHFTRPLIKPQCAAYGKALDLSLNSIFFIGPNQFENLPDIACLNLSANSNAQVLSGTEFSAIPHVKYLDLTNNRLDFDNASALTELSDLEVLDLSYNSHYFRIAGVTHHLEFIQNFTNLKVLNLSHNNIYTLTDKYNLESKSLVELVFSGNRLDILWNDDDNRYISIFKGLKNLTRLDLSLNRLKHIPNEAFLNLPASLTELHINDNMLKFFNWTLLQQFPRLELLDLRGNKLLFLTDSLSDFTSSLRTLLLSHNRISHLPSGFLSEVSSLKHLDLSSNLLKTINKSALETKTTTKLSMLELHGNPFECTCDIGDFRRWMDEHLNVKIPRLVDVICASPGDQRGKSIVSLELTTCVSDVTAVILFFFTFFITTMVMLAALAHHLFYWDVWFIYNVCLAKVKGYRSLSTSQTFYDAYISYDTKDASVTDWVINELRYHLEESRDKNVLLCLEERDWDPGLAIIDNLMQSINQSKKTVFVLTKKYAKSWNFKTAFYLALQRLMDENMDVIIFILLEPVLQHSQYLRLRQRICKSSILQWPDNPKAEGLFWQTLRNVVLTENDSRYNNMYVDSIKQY

| IC50 [1] [nM] | IC50 [2] [nM] | IC50 [3] [nM] | Structure (SMILES) |
| --- | --- | --- | --- |
| 22400 | 974 | 1090 | Cc1c(-c2[nH]c3ccc(N4CCN(C(=O)CN5CC6(COC6)C5)CC4)nc3c2C(C)C)cn2ncnc2c1C [Example 1033] |
| 26600 | > 3120 | 1400 | CNCCC(=O)N1C[C@H](C)N(c2ccc3[nH]c(-c4cn5ncnc5c(C)c4C)c(C(C)C)c3n2)C[C@H]1C [Example 1034] |
| 3670 | 21 | 1.7 | Cc1c(-c2[nH]c3ccc(C4CCC(O)(CN)CC4)nc3c2C(C)C)cn2ncnc2c1C (stereo not drawn) [Example 1035, 1-(aminomethyl)-4-(2-(7,8-dimethyl-[1,2,4]triazolo[1,5-a]pyridin-6-yl)-3-isopropyl-1H-pyrrolo[3,2-b]pyridin-5-yl)cyclohexan-1-ol] |
| 1930 | 2.7 | 1.3 | CC(C)c1c(-c2cn(C)c3ncccc23)[nH]c2ccc(C3CCC(N4CC5(COC5)C4)CC3)nc12 (stereo not drawn) [Example 1036] |
| 1610 | 6.2 | 3.1 | COc1cc(-c2[nH]c3ccc(C4CCC(N5CC6(COC6)C5)CC4)nc3c2C(C)C)cn2ncnc12 (stereo not drawn) [Example 1037] |
| 1910 | 1.3 | 0.98 | CCN(C1CCC(c2ccc3[nH]c(-c4cn5ncnc5c(C)c4C)c(C(C)C)c3n2)CC1)C1COC1 (stereo not drawn) [Example 1038] |
| 3070 | 6.4 | 7.2 | CCN(C1CCC(c2ccc3[nH]c(-c4cn5ncnc5c(C)c4C)c(C(C)C)c3n2)CC1)C1COC1 (stereo not drawn) [Example 1039] |
| 1110 | 0.66 | 0.17 | Cc1c(-c2[nH]c3ccc(C4CCC(N5CC(C)(C)C5)CC4)nc3c2C(C)C)cn2ncnc2c1C (stereo not drawn) [Example 1040] |
| 2420 | 0.85 | 0.49 | Cc1c(-c2[nH]c3ccc(C4CCC(N5CC(C)(O)C5)CC4)nc3c2C(C)C)cn2ncnc2c1C (stereo not drawn) [Example 1041] |
| 3320 | 3.3 | 2.2 | COC1CN(C2CCC(c3ccc4[nH]c(-c5cn6ncnc6c(C)c5C)c(C(C)C)c4n3)CC2)C1 (stereo not drawn) [Example 1042] |
| 1750 | 1.6 | 2.1 | Cc1c(-c2[nH]c3ccc(C4CCC(NC5CCS(=O)(=O)CC5)CC4)nc3c2C(C)C)cn2ncnc2c1C (stereo not drawn) [Example 1043] |
| 3600 | 9.2 | 4.1 | Cc1c(-c2[nH]c3ccc(C4CCC(N5CC(C)(O)C5)CC4)nc3c2C(C)C)cn2ncnc2c1C (stereo not drawn) [Example 1044] |
| 3240 | 3.6 | 4.8 | COC1CN(C2CCC(c3ccc4[nH]c(-c5cn6ncnc6c(C)c5C)c(C(C)C)c4n3)CC2)C1 (stereo not drawn) [Example 1045] |
| 2500 | 2.4 | 0.64 | Cc1c(-c2[nH]c3ccc(C4CCC(N5CC(O)C5)CC4)nc3c2C(C)C)cn2ncnc2c1C (stereo not drawn) [Example 1046] |
| 4490 | 3.5 | 1.3 | Cc1c(-c2[nH]c3ccc(C4CCC(N5CC(C(=O)N(C)C)C5)CC4)nc3c2C(C)C)cn2ncnc2c1C (stereo not drawn) [Example 1047] |
| 9830 | 13 | 4.4 | Cc1c(-c2[nH]c3ccc(C4CCC(N(C)C(C)C)CC4)nc3c2C(C)C)cn2ncnc2c1C (stereo not drawn) [Example 1048] |
| 2600 | 5.4 | 1.6 | Cc1c(-c2[nH]c3ccc(C4CCC(N5CC(O)C5)CC4)nc3c2C(C)C)cn2ncnc2c1C (stereo not drawn) [Example 1049] |
| 2660 | 4.8 | 2.8 | Cc1c(-c2[nH]c3ccc(C4CCC(N5CC(C(=O)N(C)C)C5)CC4)nc3c2C(C)C)cn2ncnc2c1C (stereo not drawn) [Example 1050] |
| 1910 | 1.5 | 0.41 | Cc1c(-c2[nH]c3ccc(C4CCC(N5CCC5)CC4)nc3c2C(C)C)cn2ncnc2c1C (stereo not drawn) [Example 1051] |
| 5920 | 17 | 8.9 | Cc1c(-c2[nH]c3ccc(C4CCC(N5CC(C)(C)C5)CC4)nc3c2C(C)C)cn2ncnc2c1C (stereo not drawn) [Example 1052] |
| 4810 | 4.8 | 2.5 | Cc1c(-c2[nH]c3ccc([C@H]4CC[C@@H](N5CC6(C5)CS(=O)(=O)C6)CC4)nc3c2C(C)C)cn2ncnc2c1C [Example 1053] |
| 1690 | 1.7 | 5.4 | Cc1c(-c2[nH]c3ccc(C4CCC(NC(C)(C)C)CC4)nc3c2C(C)C)cn2ncnc2c1C (stereo not drawn) [Example 1054] |

| IC50 [1] [nM] | IC50 [2] [nM] | IC50 [3] [nM] | Structure (SMILES) |
| --- | --- | --- | --- |
| 5470 | 8.3 | 4.3 | Cc1c(-c2[nH]c3ccc(C4CCC(N5CC6(CCO6)C5)CC4)nc3c2C(C)C)cn2ncnc2c1C (stereo not drawn) [Example 1055] |
| 2990 | 1.2 | 2.1 | Cc1c(-c2[nH]c3ccc(C4CCC(NC(C)(C)C)CC4)nc3c2C(C)C)cn2ncnc2c1C (stereo not drawn) [Example 1056] |
| 2700 | 1.7 | 0.81 | Cc1c(-c2[nH]c3ccc(C4CCC(N5CC6(CCO6)C5)CC4)nc3c2C(C)C)cn2ncnc2c1C (stereo not drawn) [Example 1057] |
| 5280 | 3.5 | 1.9 | Cc1c(-c2[nH]c3ccc(C4CCC(N5CCC(F)C5)CC4)nc3c2C(C)C)cn2ncnc2c1C (stereo not drawn) [Example 1058] |
| 2250 | 1.4 | 1.6 | Cc1c(-c2[nH]c3ccc(C4CCC(N5CCC6(CCOC6)C5)CC4)nc3c2C(C)C)cn2ncnc2c1C (stereo not drawn) [Example 1059] |
| 2600 | 0.5 | 0.5 | Cc1c(-c2[nH]c3ccc(C4CCC(N5CCC6(COC6)C5)CC4)nc3c2C(C)C)cn2ncnc2c1C (stereo not drawn) [Example 1060] |
| 3180 | 4.8 | 2.7 | Cc1c(-c2[nH]c3ccc(C4CCC(N5CC6(CCOC6)C5)CC4)nc3c2C(C)C)cn2ncnc2c1C (stereo not drawn) [Example 1061] |
| 10200 | 25 | 13 | Cc1c(-c2[nH]c3ccc(C4CCC(N5CCC(F)C5)CC4)nc3c2C(C)C)cn2ncnc2c1C (stereo not drawn) [Example 1062] |
| 8060 | 18 | 10 | Cc1c(-c2[nH]c3ccc(C4CCC(N5CCC6(COC6)C5)CC4)nc3c2C(C)C)cn2ncnc2c1C (stereo not drawn) [Example 1063] |
| 2460 | 0.96 | 0.34 | Cc1c(-c2[nH]c3ccc(C4CCC(N5CCOCC5)CC4)nc3c2C(C)C)cn2ncnc2c1C (stereo not drawn) [Example 1064] |
| 2800 | 1.1 | 1.1 | Cc1c(-c2[nH]c3ccc(C4CCC(N5CC6(CCOC6)C5)CC4)nc3c2C(C)C)cn2ncnc2c1C (stereo not drawn) [Example 1065] |
| 4290 | 11 | 9 | Cc1c(-c2[nH]c3ccc(C4CCC(N5CCC6(CCOC6)C5)CC4)nc3c2C(C)C)cn2ncnc2c1C (stereo not drawn) [Example 1066] |
| 2960 | 1.8 | 0.88 | COc1cc(-c2[nH]c3ccc(C4CCC(N5CCC6(COC6)C5)CC4)nc3c2C(C)C)cn2ncnc12 (stereo not drawn) [Example 1068] |
| 735 | 0.17 | 0.09 | COc1cc(-c2[nH]c3ccc(C4CCC(N5CC6(CCOC6)C5)CC4)nc3c2C(C)C)cn2ncnc12 (stereo not drawn) [Example 1069] |
| 845 | 0.72 | 0.54 | COc1cc(-c2[nH]c3ccc(C4CCC(N5CC6(CCOC6)C5)CC4)nc3c2C(C)C)cn2ncnc12 (stereo not drawn) [Example 1070] |
| 5830 | 28 | 4.6 | COc1cc(-c2[nH]c3ccc(C4CCC(N5CCC6(COC6)C5)CC4)nc3c2C(C)C)cn2ncnc12 (stereo not drawn) [Example 1073] |
| 2130 | 1.9 | 0.59 | COc1cc(-c2[nH]c3ccc(C4CCC(N5CC6(CCO6)C5)CC4)nc3c2C(C)C)cn2ncnc12 (stereo not drawn) [Example 1074] |
| 3350 | 11 | 1.8 | COc1cc(-c2[nH]c3ccc(C4CCC(N5CC6(CCO6)C5)CC4)nc3c2C(C)C)cn2ncnc12 (stereo not drawn) [Example 1075] |
| 10600 | 1.8 | 1.6 | Cc1c(-c2[nH]c3ccc(C4CCC(N5CC6(CCS6(=O)=O)C5)CC4)nc3c2C(C)C)cn2ncnc2c1C (stereo not drawn) [Example 1076] |
| 21800 | 38 | 18 | Cc1c(-c2[nH]c3ccc(C4CCC(N5CC6(CCS6(=O)=O)C5)CC4)nc3c2C(C)C)cn2ncnc2c1C (stereo not drawn) [Example 1077] |
| > 50000 | 216 | 9.8 | CNC1CCC(c2ccc3[nH]c(-c4cn(C)c5ncncc45)c(C(C)C)c3n2)CC1 (stereo not drawn) [Example 1078] |

| Structure (SMILES) | IC50 [1] [nM] | IC50 [2] [nM] | IC50 [3] [nM] |
| --- | --- | --- | --- |
| COc1cc(-c2[nH]c3ccc(C4CCC(N5CCC(F)C5)CC4)nc3c2C(C)C)cn2ncnc12 (stereo not drawn) [Example 1067] | 5400 | 4.5 | 1 |
| COc1cc(-c2[nH]c3ccc(C4CCC(N5CCOCC5)CC4)nc3c2C(C)C)cn2ncnc12 (stereo not drawn) [Example 1071] | 5950 | 25 | 3.7 |
| COc1cc(-c2[nH]c3ccc(C4CCC(N5CCC(F)C5)CC4)nc3c2C(C)C)cn2ncnc12 (stereo not drawn) [Example 1072] | 5840 | 35 | 2.9 |

— patent US10544143B2, “4-azaindole compounds” (BRISTOL-MYERS SQUIBB COMPANY, priority 2017, dated 2020)
